Key:
OX1 = molecular target: T1, OX1 (Homo sapiens, UniProt O43613); test: Orexin receptor cell-based functional assay, [Ca2+]i by FLIPR, CHO-OX1 cells; settings: CHO-OX1 cells, [Ca2+]i by FLIPR, antagonist dose-range 0.1 nM-10 μM, EC90 of OXA; read-out: OX1
T1 construct: expressed in transfected cells; host or cells: CHO (CHO-OX1, kept under selection antibiotic)
T1 sequence (O43613 1-425): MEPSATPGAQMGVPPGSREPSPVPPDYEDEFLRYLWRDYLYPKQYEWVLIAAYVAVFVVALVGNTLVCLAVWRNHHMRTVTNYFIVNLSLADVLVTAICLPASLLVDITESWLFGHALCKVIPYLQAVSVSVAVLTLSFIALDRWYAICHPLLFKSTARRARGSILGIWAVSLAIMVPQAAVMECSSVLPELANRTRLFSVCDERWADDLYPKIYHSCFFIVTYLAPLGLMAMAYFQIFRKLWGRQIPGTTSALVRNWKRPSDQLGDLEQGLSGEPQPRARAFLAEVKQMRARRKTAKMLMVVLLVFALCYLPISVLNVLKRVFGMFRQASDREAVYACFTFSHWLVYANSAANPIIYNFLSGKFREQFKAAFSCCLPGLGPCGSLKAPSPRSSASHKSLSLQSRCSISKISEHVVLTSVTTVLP
Outline: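 CHO cells expressing human OX1 or OX2 loaded with calcium dye plus 2.5 mM probenecid at 37° C (calcium4, 30 min, or calcium6, 2 h), then exposed to compounds (0.1 nM-10 μM) for 30 min. Intracellular Ca2+ measured on FLIPR; antagonist format.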

CYP3A4 = molecular target: T2, CYP3A4 (Homo sapiens, UniProt P08684); test: Cytochrome P450 inhibition assay (midazolam hydroxylation); assay type: in vitro ADME; settings: human, human liver microsomes, probe midazolam (hydroxylation to 1′-hydroxymidazolam), 10 μM test compound, midazolam at approximately its Km
T2 construct: pre-incubated with human liver microsomes and NADPH; from tissue; host or cells: human liver microsomes
T2 sequence (P08684 whole entry): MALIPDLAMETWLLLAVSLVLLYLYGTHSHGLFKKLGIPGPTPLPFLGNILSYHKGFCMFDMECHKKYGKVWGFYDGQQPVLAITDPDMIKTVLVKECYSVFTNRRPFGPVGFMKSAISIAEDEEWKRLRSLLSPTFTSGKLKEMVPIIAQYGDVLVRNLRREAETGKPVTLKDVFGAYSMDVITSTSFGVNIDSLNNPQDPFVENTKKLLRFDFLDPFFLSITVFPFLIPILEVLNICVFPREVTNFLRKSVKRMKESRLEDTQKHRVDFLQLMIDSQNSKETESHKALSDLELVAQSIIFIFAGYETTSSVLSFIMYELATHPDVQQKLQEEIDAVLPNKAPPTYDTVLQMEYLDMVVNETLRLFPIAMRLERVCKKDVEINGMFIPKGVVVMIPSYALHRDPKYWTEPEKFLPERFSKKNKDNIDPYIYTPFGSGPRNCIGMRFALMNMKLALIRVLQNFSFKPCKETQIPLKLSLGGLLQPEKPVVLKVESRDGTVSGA
Outline: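 Human liver microsomes; CYP3A4 activity as midazolam 1′-hydroxylation with substrate near Km, with or without 10 μM test compound, read as percent inhibition. For time-dependent inhibition, parallel samples were preincubated 30 min with NADPH before substrate, and percent inhibition compared with non-preincubated samples.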

| SMILES | IC50 (OX1) | inhibition at 10 µM (CYP3A4) |
| --- | --- | --- |
| Cc1ccc(-n2ccc(C)n2)c(C(=O)N2CCC[C@@H](C)[C@H]2CNc2nnc(C(F)(F)F)s2)c1 [Example A132, ((2S,3R)-3-Methyl-2-(((5-(trifluoromethyl)-1,3,4-thiadiazol-2-yl)amino)methyl)piperidin-1-yl)(5-methyl-2-(3-methyl-1H-pyrazol-1-yl)phenyl)methanone] | 160 nM | 81% |
| Cc1ccc(-n2nccn2)c(C(=O)N2CCC[C@@H](C)[C@H]2CNc2ncc(C#N)cn2)c1 [Example A134, 2-((((2S,3R)-3-Methyl-1-(5-methyl-2-(2H-1,2,3-triazol-2-yl)benzoyl)piperidin-2-yl)methyl)amino)pyrimidine-5-carbonitrile] | 150 nM | 50% |
| Cc1ccc(-c2ncccn2)c(C(=O)N2CCC[C@@H](C)[C@H]2CNc2ccc(C#N)cn2)c1 [Example A139, 6-((((2S,3R)-3-Methyl-1-(5-methyl-2-(pyrimidin-2-yl)benzoyl)piperidin-2-yl)methyl)amino)nicotinonitrile] | 140 nM | 41% |
| Cc1ccc(-n2nccn2)c(C(=O)N2CCC[C@@H](C)[C@H]2CNc2ccc(C#N)nn2)c1 [Example A145, 6-((((2S,3R)-3-Methyl-1-(5-methyl-2-(2H-1,2,3-triazol-2-yl)benzoyl)piperidin-2-yl)methyl)amino)pyridazine-3-carbonitrile] | > 1000 nM | 48% |
| Cc1ccc(-n2nccn2)c(C(=O)N2CCC[C@@H](C)[C@H]2CNc2ccc(C)nn2)c1 [Example A146, ((2S,3R)-3-Methyl-2-(((6-methylpyridazin-3-yl)amino)methyl)piperidin-1-yl)(5-methyl-2-(2H-1,2,3-triazol-2-yl)phenyl)methanone] | > 1000 nM | 29% |
| Cc1ccc(-c2ccccn2)c(C(=O)N2CCC[C@@H](C)[C@H]2CNc2ccc(C(F)(F)F)nn2)c1 [Example A150, ((2S,3R)-3-Methyl-2-(((6-(trifluoromethyl)pyridazin-3-yl)amino)methyl)piperidin-1-yl) (5-methyl-2-(pyridin-2-yl)phenyl)methanone] | 130 nM | 74% |
| Cc1ccc(-c2ccccn2)c(C(=O)N2CCC[C@@H](C)[C@H]2CNc2ncc(C#N)cn2)c1 [Example A153, 2-((((2S,3R)-3-Methyl-1-(5-methyl-2-(pyridin-2-yl)benzoyl)piperidin-2-yl)methyl)amino)pyrimidine-5-carbonitrile] | 140 nM | 66% |
| Cc1ccc(-n2cccn2)c(C(=O)N2CCC[C@@H](C)[C@H]2CNc2ccc(C)nn2)c1 [Example A154, ((2S,3R)-3-Methyl-2-(((6-methylpyridazin-3-yl)amino)methyl)piperidin-1-yl)(5-methyl-2-(1H-pyrazol-1-yl)phenyl)methanone] | > 1000 nM | 43% |
| Cc1ccc(-n2cccn2)c(C(=O)N2CCC[C@@H](C)[C@H]2CNc2ccc(C#N)nn2)c1 [Example A156, 6-((((2S,3R)-3-Methyl-1-(5-methyl-2-(1H-pyrazol-1-yl)benzoyl)piperidin-2-yl)methyl)amino)pyridazine-3-carbonitrile] | > 1000 nM | 53% |
| Cc1ccc(-n2cccn2)c(C(=O)N2CCC[C@@H](C)[C@H]2CNc2ccc(C(F)(F)F)nn2)c1 [Example A157, ((2S,3R)-3-mMethyl-2-(((6-(trifluoromethyl)pyridazin-3-yl)amino)methyl)piperidin-1-yl)(5-methyl-2-(1H-pyrazol-1-yl)phenyl)methanone] | 110 nM | 77% |
| Cc1ccc(-c2ccc(C(F)(F)F)cn2)c(C(=O)N2CCC[C@@H](C)[C@H]2CNc2ccc(Cl)cn2)c1 [Example A158, ((2S,3R)-2-(((5-Chloropyridin-2-yl)amino)methyl)-3-methylpiperidin-1-yl)(5-methyl-2-(5-(trifluoromethyl)pyridin-2-yl)phenyl)methanone] | 220 nM | 83% |
| Cc1ccc(-c2ccc(F)cn2)c(C(=O)N2CCC[C@@H](C)[C@H]2CNc2ccc(Cl)cn2)c1 [Example A159, ((2S,3R)-2-(((5-Chloropyridin-2-yl)amino)methyl)-3-methylpiperidin-1-yl)(2-(5-fluoropyridin-2-yl)-5-methylphenyl)methanone] | 170 nM | 88% |

These reach a lower IC50 (OX1). Values come first.

| IC50 (OX1) | inhibition at 10 µM (CYP3A4) | SMILES |
| --- | --- | --- |
| 93 nM | 89% | Cc1ccc(-n2ccc(C)n2)c(C(=O)N2CCC[C@@H](C)[C@H]2CNc2ccc(C#N)cn2)c1 [Example A133, 6-((((2S,3R)-3-Methyl-1-(5-methyl-2-(3-methyl-1H-pyrazol-1-yl)benzoyl)piperidin-2-yl)methyl)amino)nicotinonitrile] |
| 83 nM | 81% | Cc1ccc(-n2nccn2)c(C(=O)N2CCC[C@@H](C)[C@H]2CNc2ncc(C#N)cc2F)c1 [Example A148, 5-Fluoro-6-((((2S,3R)-3-methyl-1-(5-methyl-2-(2H-1,2,3-triazol-2-yl)benzoyl)piperidin-2-yl)methyl)amino)nicotinonitrile] |
| 51 nM | 74% | Cc1ccc(-n2ncc(C)n2)c(C(=O)N2CCC[C@@H](C)[C@H]2CNc2ccc(F)cn2)c1 [Example A142, ((2S,3R)-2-(((5-Fluoropyridin-2-yl)amino)methyl)-3-methylpiperidin-1-yl)(5-methyl-2-(4-methyl-2H-1,2,3-triazol-2-yl)phenyl)methanone] |
| 31 nM | 47% | Cc1ccc(-c2ncccn2)c(C(=O)N2CCC[C@@H](C)[C@H]2CNc2ccc(C(F)(F)F)nn2)c1 [Example A137, ((2S,3R)-3-Methyl-2-(((6-(trifluoromethyl)pyridazin-3-yl)amino)methyl)piperidin-1-yl)(5-methyl-2-(pyrimidin-2-yl)phenyl)methanone] |
| 26 nM | 75% | Cc1ccc(NC[C@@H]2[C@H](C)CCCN2C(=O)c2cc(C)ccc2-c2ncccn2)nc1 [Example A143, ((2S,3R)-3-Methyl-2-(((5-methylpyridin-2-yl)amino)methyl)piperidin-1-yl)(5-methyl-2-(pyrimidin-2-yl)phenyl)methanone] |
| 21 nM | 86% | Cc1ccc(-n2ccc(C)n2)c(C(=O)N2CCC[C@@H](C)[C@H]2CNc2ccc(C(F)(F)F)nn2)c1 [Example A130, ((2S,3R)-3-Methyl-2-(((6-(trifluoromethyl)pyridazin-3-yl)amino)methyl)piperidin-1-yl)(5-methyl-2-(3-methyl-1H-pyrazol-1-yl)phenyl)methanone] |
| 21 nM | 80% | Cc1ccc(-n2ncc(C)n2)c(C(=O)N2CCC[C@@H](C)[C@H]2CNc2nnc(C(F)(F)F)s2)c1 [Example A135, ((2S,3R)-3-Methyl-2-(((5-(trifluoromethyl)-1,3,4-thiadiazol-2-yl)amino)methyl)piperidin-1-yl)(5-methyl-2-(4-methyl-2H-1,2,3-triazol-2-yl)phenyl)methanone] |
| 13 nM | 64% | Cc1ccc(-n2nccn2)c(C(=O)N2CCC[C@@H](C)[C@H]2CNc2ccc(C3(C#N)CC3)cn2)c1 [Example A140, 1-(6-((((2S,3R)-3-Methyl-1-(5-methyl-2-(2H-1,2,3-triazol-2-yl)benzoyl)piperidin-2-yl)methyl)amino)pyridin-3-yl)cyclopropanecarbonitrile] |
| 12 nM | 75% | Cc1ccc(-c2ncccn2)c(C(=O)N2CCC[C@@H](C)[C@H]2CNc2ccc(Cl)cn2)c1 [Example A138, ((2S,3R)-2-(((5-Chloropyridin-2-yl)amino)methyl)-3-methylpiperidin-1-yl)(5-methyl-2-(pyrimidin-2-yl)phenyl)methanone] |
| 4 nM | 86% | Cc1ccc(-c2ccccn2)c(C(=O)N2CCC[C@@H](C)[C@H]2CNc2ncc(C(F)(F)F)cn2)c1 [Example A152, ((2S,3R)-3-Methyl-2-(((5-(trifluoromethyl)pyrimidin-2-yl)amino)methyl)piperidin-1-yl) (5-methyl-2-(pyridin-2-yl)phenyl)methanone] |
| 3 nM | 64% | Cc1ccc(-n2nccn2)c(C(=O)N2CCC[C@@H](C)[C@H]2CNc2nc3cc(F)ccc3o2)c1 [Example A129, ((2S,3R)-2-(((5-Fluorobenzo[d]oxazol-2-yl)amino)methyl)-3-methylpiperidin-1-yl)(5-methyl-2-(2H-1,2,3-triazol-2-yl)phenyl)methanone] |
| 3 nM | 60% | Cc1ccc(-n2nccn2)c(C(=O)N2CCC[C@@H](C)[C@H]2CNc2ncc(C(F)(F)F)cn2)c1 [Example A149, ((2S,3R)-3-Methyl-2-(((5-(trifluoromethyl)pyrimidin-2-yl)amino)methyl)piperidin-1-yl)(5-methyl-2-(2H-1,2,3-triazol-2-yl)phenyl)methanone] |

Reference: patent publication US9440982B2 (Eolas Therapeutics, Inc., priority 2012, dated 2016)
